ChEMBL document CHEMBL4257221, “Peptides comprising non-natural amino acids and methods of making and using the same” (2016)
The source made the active and inactive calls. No cut-off for these calls is given here. Numbered stars: 1 amine (or outer) side, 2 acyl side, 3 side chain; on linkers, the order of the positions; unused ones are H or OH. Square brackets hold non-standard residues; d marks the D form. Peptide text beside a SMILES is read from it. ξ: configuration not given here. X1 = O=C([C@H]1CCC[C@@H]1N[*:1])[*:2]; X2 = O=C([C@H]1CNC[C@@H]1N[*:1])[*:2]; ξβ3hY = NC(CC(=O)O)Cc1ccc(O)cc1; ξβ3hQ = NC(=O)CCC(N)CC(=O)O; ξβ3hN = NC(=O)CC(N)CC(=O)O; ξβ3hL = CC(C)CC(N)CC(=O)O; ξβ3hK = NCCCCC(N)CC(=O)O; ξβ3hT = CC(O)C(N)CC(=O)O; ξβ3hV = CC(C)C(N)CC(=O)O; ξβ3hS = NC(CO)CC(=O)O; βAla = NCCC(=O)O

What was measured:
Mus musculus [1] = test: Anti-parkinson's activity in MPTP-induced C57BL/6 mouse model of Parkinson's disease receiving adaptive transfer of splenocytes from 15 ug/day/5 days, ip compound treated donor mouse assessed as TH-positive neurons survival rate in substantia nigra measured on day 7 post MPTP intoxication by FJ-C staining based assay (reference value: 24.5%); type: functional
Mus musculus [2] = test: Stimulation of Treg cells function in C57BL/6 mouse splenocytes assessed as suppression of anti-CD3-stimulated CD4+/CD25- naive T cells proliferation at 300 ug, ip pretreated daily for 5 days followed by splenocytes isolation and co-culture with CD4+/CD25- naive T cells; type: functional, organism-based
Mus musculus [3] = test: Stimulation of Treg cells function in C57BL/6 mouse splenocytes assessed as suppression of anti-CD3-stimulated effector T cell proliferation pretreated ip daily for 5 days followed by splenocytes isolation and co-culture with untreated splenocytes at 1:1 ratio; type: functional, organism-based
[4] = molecular target: T1, Vasoactive intestinal polypeptide receptor 2 (Homo sapiens, UniProt P41587); test: Agonist activity at human VIPR2 expressed in CHOK1 cells assessed as intracellular cAMP accumulation after 60 mins by PathHunter assay; type: functional, cell-based
T1 sequence (P41587 whole entry): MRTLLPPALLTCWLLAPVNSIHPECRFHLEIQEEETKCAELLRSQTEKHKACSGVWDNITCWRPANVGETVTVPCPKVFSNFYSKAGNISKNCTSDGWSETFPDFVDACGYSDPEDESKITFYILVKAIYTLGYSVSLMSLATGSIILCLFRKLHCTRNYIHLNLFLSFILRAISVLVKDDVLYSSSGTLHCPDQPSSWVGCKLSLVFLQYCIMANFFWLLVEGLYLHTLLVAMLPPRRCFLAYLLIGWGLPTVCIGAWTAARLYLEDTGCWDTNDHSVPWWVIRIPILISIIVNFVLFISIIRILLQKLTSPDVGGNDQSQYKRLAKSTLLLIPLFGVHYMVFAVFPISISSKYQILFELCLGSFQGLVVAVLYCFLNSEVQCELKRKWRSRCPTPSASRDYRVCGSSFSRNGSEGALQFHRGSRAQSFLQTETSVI

[5] = molecular target: T2, Vasoactive intestinal polypeptide receptor 1 (Homo sapiens, UniProt P32241); test: Agonist activity at human VIPR1 expressed in CHOK1 cells assessed as intracellular cAMP accumulation after 60 mins by PathHunter assay; type: functional, cell-based
T2 sequence (P32241 whole entry): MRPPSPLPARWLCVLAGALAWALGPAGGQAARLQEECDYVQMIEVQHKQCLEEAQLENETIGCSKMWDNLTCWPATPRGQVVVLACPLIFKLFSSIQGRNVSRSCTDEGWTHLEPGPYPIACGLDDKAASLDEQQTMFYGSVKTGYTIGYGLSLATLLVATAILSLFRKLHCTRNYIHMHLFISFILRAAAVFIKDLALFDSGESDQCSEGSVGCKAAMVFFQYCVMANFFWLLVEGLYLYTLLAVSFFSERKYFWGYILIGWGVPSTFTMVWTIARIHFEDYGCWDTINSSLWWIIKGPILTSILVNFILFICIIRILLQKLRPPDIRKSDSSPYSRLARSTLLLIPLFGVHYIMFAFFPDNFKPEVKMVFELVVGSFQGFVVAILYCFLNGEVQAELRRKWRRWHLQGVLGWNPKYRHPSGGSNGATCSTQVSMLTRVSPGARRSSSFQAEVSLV

Row | Structure (SMILES) | EC50 [4] | EC50 [5] | Survival (Mus musculus [1]) | Activity (Mus musculus [2]) | Activity (Mus musculus [3])
1 | CC(=O)N[C@@H](Cc1cnc[nH]1)C(=O)N[C@H]1CCC[C@@H]1C(=O)N[C@@H](CC(=O)O)C(=O)N[C@@H](C)C(=O)N[C@H]1CCC[C@@H]1C(=O)N[C@@H](Cc1ccccc1)C(=O)N[C@H](C(=O)N[C@@H](CCC(=O)O)C(=O)N[C@@H](CC(N)=O)C(=O)N[C@@H](Cc1ccc(O)cc1)C(=O)N[C@H](C(=O)N[C@@H](CCCCN)C(=O)N[C@@H](CC(C)C)C(=O)N[C@@H](CCCNC(=N)N)C(=O)N[C@@H](CCCCN)C(=O)NC(CCC(N)=O)CC(=O)N[C@@H](CC(C)C)C(=O)N[C@@H](C)C(=O)N[C@@H](C)C(=O)N[C@H]1CNC[C@@H]1C(=O)N[C@@H](CCCCN)C(=O)N[C@@H](Cc1ccc(O)cc1)C(=O)N[C@H]1CCC[C@@H]1C(=O)N[C@@H](CC(N)=O)C(=O)N[C@@H](CC(=O)O)C(=O)N[C@@H](CC(C)C)C(=O)NC(CCCCN)CC(=O)N[C@@H](CCCCN)C(=O)NCC(=O)NCCC(=O)NC(CC(=O)O)C(C)O)[C@@H](C)O)[C@@H](C)O (stereo partly drawn) (Ac-H[X1]DA[X1]FTENYTKLRK[ξβ3hQ]LAA[X2]KY[X1]NDL[ξβ3hK]KG[βAla][ξβ3hT]-OH) |  |  | 79.7% | Active | Dose-dependent effect
2 | CC[C@H](C)[C@H](NC(=O)[C@H](C)NC(=O)[C@H](CC(N)=O)NC(=O)CC(CC(C)C)NC(=O)[C@H](Cc1ccc(O)cc1)NC(=O)[C@H](CCCCN)NC(=O)[C@H](CCCCN)NC(=O)CC(NC(=O)[C@H](C)NC(=O)[C@H](CC(C)C)NC(=O)[C@H](CCC(N)=O)NC(=O)CC(CCCCN)NC(=O)[C@H](CCCNC(=N)N)NC(=O)[C@H](CC(C)C)NC(=O)[C@H](CCCNC(=N)N)NC(=O)CC(NC(=O)[C@H](Cc1ccc(O)cc1)NC(=O)[C@H](CC(N)=O)NC(=O)[C@H](CC(=O)O)NC(=O)[C@@H](NC(=O)[C@H](Cc1ccccc1)NC(=O)[C@@H](NC(=O)[C@H](C)NC(=O)[C@H](CC(=O)O)NC(=O)[C@H]1CCC[C@@H]1NC(=O)[C@@H](N)Cc1cnc[nH]1)C(C)C)[C@@H](C)O)C(C)O)C(C)C)C(=O)NC(CC(=O)N[C@@H](CC(N)=O)C(=O)O)CC(C)C (stereo partly drawn) (H-H[X1]DAVFTDNY[ξβ3hT]RLR[ξβ3hK]QLA[ξβ3hV]KKY[ξβ3hL]NAI[ξβ3hL]N-OH) | 4.9 µM | 0.00566 µM |  |  | 
3 | CC[C@H](C)[C@H](NC(=O)[C@H](C)NC(=O)[C@H](CC(N)=O)NC(=O)CC(CC(C)C)NC(=O)[C@H](Cc1ccc(O)cc1)NC(=O)[C@H](CCCCN)NC(=O)[C@H](CCCCN)NC(=O)CC(NC(=O)[C@H](C)NC(=O)[C@H](CC(C)C)NC(=O)[C@H](CCC(N)=O)NC(=O)CC(CCCCN)NC(=O)[C@H](CCCNC(=N)N)NC(=O)[C@H](CC(C)C)NC(=O)[C@H](CCCNC(=N)N)NC(=O)CC(NC(=O)[C@H](Cc1ccc(O)cc1)NC(=O)[C@H](CC(N)=O)NC(=O)[C@H](CC(=O)O)NC(=O)[C@@H](NC(=O)[C@H](Cc1ccccc1)NC(=O)CC(NC(=O)[C@H](C)NC(=O)[C@H](CC(=O)O)NC(=O)[C@H]1CCC[C@@H]1NC(=O)[C@@H](N)Cc1cnc[nH]1)C(C)C)[C@@H](C)O)C(C)O)C(C)C)C(=O)NC(CC(=O)N[C@@H](CC(N)=O)C(=O)O)CC(C)C (stereo partly drawn) (H-H[X1]DA[ξβ3hV]FTDNY[ξβ3hT]RLR[ξβ3hK]QLA[ξβ3hV]KKY[ξβ3hL]NAI[ξβ3hL]N-OH) | 0.262 µM | 0.00443 µM |  |  | 
4 | CC[C@H](C)[C@H](NC(=O)[C@H](C)NC(=O)[C@H](CC(N)=O)NC(=O)CC(CC(C)C)NC(=O)[C@H](Cc1ccc(O)cc1)NC(=O)[C@H](CCCCN)NC(=O)[C@H](CCCCN)NC(=O)CC(NC(=O)[C@H](C)NC(=O)[C@H](CC(C)C)NC(=O)[C@H](CCC(N)=O)NC(=O)CC(CCCCN)NC(=O)[C@H](CCCNC(=N)N)NC(=O)[C@H](CC(C)C)NC(=O)[C@H](CCCNC(=N)N)NC(=O)CC(NC(=O)[C@H](Cc1ccc(O)cc1)NC(=O)CC(CC(N)=O)NC(=O)[C@H](CC(=O)O)NC(=O)[C@@H](NC(=O)[C@H](Cc1ccccc1)NC(=O)CC(NC(=O)[C@H](C)NC(=O)[C@H](CC(=O)O)NC(=O)CC(CO)NC(=O)[C@@H](N)Cc1cnc[nH]1)C(C)C)[C@@H](C)O)C(C)O)C(C)C)C(=O)NC(CC(=O)N[C@@H](CC(N)=O)C(=O)O)CC(C)C (stereo partly drawn) (H-H[ξβ3hS]DA[ξβ3hV]FTD[ξβ3hN]Y[ξβ3hT]RLR[ξβ3hK]QLA[ξβ3hV]KKY[ξβ3hL]NAI[ξβ3hL]N-OH) | 0.503 µM | 298 µM |  |  | 

Further molecules by falling EC50 [4], results first:

Row | EC50 [4] | EC50 [5] | Structure (SMILES) | Survival (Mus musculus [1]) | Activity (Mus musculus [2]) | Activity (Mus musculus [3])
5 | 0.716 µM | 0.0644 µM | CC[C@H](C)[C@H](NC(=O)[C@H](C)NC(=O)[C@H](CC(N)=O)NC(=O)CC(CC(C)C)NC(=O)[C@H](Cc1ccc(O)cc1)NC(=O)[C@H](CCCCN)NC(=O)[C@H](CCCCN)NC(=O)CC(NC(=O)[C@H](C)NC(=O)[C@H](CC(C)C)NC(=O)[C@H](CCC(N)=O)NC(=O)CC(CCCCN)NC(=O)[C@H](CCCNC(=N)N)NC(=O)[C@H](CC(C)C)NC(=O)[C@H](CCCNC(=N)N)NC(=O)CC(NC(=O)[C@H](Cc1ccc(O)cc1)NC(=O)[C@H](CC(N)=O)NC(=O)[C@H](CC(=O)O)NC(=O)[C@@H](NC(=O)[C@H](Cc1ccccc1)NC(=O)CC(NC(=O)[C@H](C)NC(=O)[C@H](CC(=O)O)NC(=O)CC(CO)NC(=O)[C@@H](N)Cc1cnc[nH]1)C(C)C)[C@@H](C)O)C(C)O)C(C)C)C(=O)NC(CC(=O)N[C@@H](CC(N)=O)C(=O)O)CC(C)C (stereo partly drawn) (H-H[ξβ3hS]DA[ξβ3hV]FTDNY[ξβ3hT]RLR[ξβ3hK]QLA[ξβ3hV]KKY[ξβ3hL]NAI[ξβ3hL]N-OH) |  |  | 
6 | 0.0956 µM | 0.932 µM | CC(C)C[C@H](NC(=O)[C@H](CC(=O)O)NC(=O)[C@H](CC(N)=O)NC(=O)[C@H]1CCC[C@@H]1NC(=O)[C@H](Cc1ccc(O)cc1)NC(=O)[C@H](CCCCN)NC(=O)[C@H]1CNC[C@@H]1NC(=O)[C@H](C)NC(=O)[C@H](C)NC(=O)[C@H](CC(C)C)NC(=O)[C@H](CCC(N)=O)NC(=O)[C@H](CCCCN)NC(=O)[C@H](CCCNC(=N)N)NC(=O)[C@H](CC(C)C)NC(=O)[C@H](CCCCN)NC(=O)[C@@H](NC(=O)CC(Cc1ccc(O)cc1)NC(=O)CC(CC(N)=O)NC(=O)[C@H](CCC(=O)O)NC(=O)[C@@H](NC(=O)[C@H](Cc1ccccc1)NC(=O)[C@H]1CCC[C@@H]1NC(=O)[C@H](C)NC(=O)[C@H](CC(=O)O)NC(=O)[C@H]1CCC[C@@H]1NC(=O)[C@@H](N)Cc1cnc[nH]1)[C@@H](C)O)[C@@H](C)O)C(=O)NC(CCCCN)CC(=O)N[C@@H](CCCCN)C(=O)NCC(=O)NCCC(=O)N[C@H](C(=O)O)[C@@H](C)O (stereo partly drawn) (H-H[X1]DA[X1]FTE[ξβ3hN][ξβ3hY]TKLRKQLAA[X2]KY[X1]NDL[ξβ3hK]KG[βAla]T-OH) |  |  | 
7 | 0.0796 µM | 0.000358 µM | CC[C@H](C)[C@H](NC(=O)[C@H](C)NC(=O)[C@H](CC(N)=O)NC(=O)CC(CC(C)C)NC(=O)[C@H](Cc1ccc(O)cc1)NC(=O)[C@H](CCCCN)NC(=O)[C@H](CCCCN)NC(=O)CC(NC(=O)[C@H](C)NC(=O)[C@H](CC(C)C)NC(=O)[C@H](CCC(N)=O)NC(=O)CC(CCCCN)NC(=O)[C@H](CCCNC(=N)N)NC(=O)[C@H](CC(C)C)NC(=O)[C@H](CCCNC(=N)N)NC(=O)CC(NC(=O)[C@H](Cc1ccc(O)cc1)NC(=O)[C@H](CC(N)=O)NC(=O)[C@H](CC(=O)O)NC(=O)[C@@H](NC(=O)[C@H](Cc1ccccc1)NC(=O)[C@H]1CCC[C@@H]1NC(=O)[C@H](C)NC(=O)[C@H](CC(=O)O)NC(=O)[C@H]1CCC[C@@H]1NC(=O)[C@@H](N)Cc1cnc[nH]1)[C@@H](C)O)C(C)O)C(C)C)C(=O)NC(CC(=O)N[C@@H](CC(N)=O)C(=O)O)CC(C)C (stereo partly drawn) (H-H[X1]DA[X1]FTDNY[ξβ3hT]RLR[ξβ3hK]QLA[ξβ3hV]KKY[ξβ3hL]NAI[ξβ3hL]N-OH) |  |  | 
